{
  "source": "patent US20230183237A1",
  "about": "“COMPETITIVE AND NONCOMPETITIVE INHIBITORS OF THE MUSCARINIC ACETYLCHOLINE RECEPTOR M5” (Vanderbilt University, priority 2020, published 2023)",
  "data": [
    {"biological_target": "T1, hM5 (Homo sapiens, UniProt P08912)", "T1 construct": "expressed in transfected cells", "T1 sequence (P08912 1-532)": "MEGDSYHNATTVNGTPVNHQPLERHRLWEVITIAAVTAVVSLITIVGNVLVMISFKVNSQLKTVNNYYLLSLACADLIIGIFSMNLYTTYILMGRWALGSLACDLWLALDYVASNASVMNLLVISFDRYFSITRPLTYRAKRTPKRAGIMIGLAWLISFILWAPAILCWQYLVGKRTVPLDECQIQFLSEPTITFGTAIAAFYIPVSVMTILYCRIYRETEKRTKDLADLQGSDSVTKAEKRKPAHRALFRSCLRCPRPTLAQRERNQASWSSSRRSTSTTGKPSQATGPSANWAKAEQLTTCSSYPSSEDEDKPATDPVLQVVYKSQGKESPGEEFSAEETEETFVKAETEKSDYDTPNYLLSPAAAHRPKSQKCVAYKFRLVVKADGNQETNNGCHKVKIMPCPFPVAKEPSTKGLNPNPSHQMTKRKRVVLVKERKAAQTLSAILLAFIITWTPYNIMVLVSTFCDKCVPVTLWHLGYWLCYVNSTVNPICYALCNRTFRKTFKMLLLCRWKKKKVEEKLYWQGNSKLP", "test": "Calcium mobilization concentration-response (IC50 vs EC80 acetylcholine), CHO hM5", "assay_type": "cell-based", "settings": "CELL LINE hM5; calcium mobilization, EC80 acetylcholine addition; read-out: IC50", "summary_of_the_method": "(§1)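 CHO cells stably expressing hM5, dye-loaded, in HBSS/20 mM HEPES/2.5 mM probenecid, pH 7.4. Compounds were pre-incubated 140 s before an EC80 acetylcholine challenge, with calcium flux read kinetically.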", "units": {"IC50": "µM"}, "values": [
      {"compound": "Cc1cc2ncnn2cc1[C@@H]1CCN(S(=O)(=O)c2cnn(C)c2C)C[C@H]1F", "note": "(racemic) [Compound 174, (rac)-6-(trans-1-((1,5-Dimethyl-1H-pyrazol-4-yl)sulfonyl)-3-fluoropiperidin-4-yl)-7-methyl-[1,2,4]triazolo[1,5-a]pyridine]", "IC50": 0.02},
      {"compound": "Cc1cc2ncnn2nc1C1CCN(S(=O)(=O)c2ccc3c(c2)N(C)CCO3)CC1", "note": "[Compound 166, 4-methyl-6-((4-(7-methyl-[1,2,4]triazolo[1,5-b]pyridazin-6-yl)piperidin-1-yl)sulfonyl)-3,4-dihydro-2H-benzo[b][1,4]oxazine]", "IC50": 1.6},
      {"compound": "Cc1cc2ncnn2cc1C1CCN(S(=O)(=O)c2cnn(C)c2Cl)C(C)C1", "note": "(stereo not shown) [Compound 361, 6-(1-((5-chloro-1-methyl-1H-pyrazol-4-yl)sulfonyl)-2-methylpiperidin-4-yl)-7-methyl-[1,2,4]triazolo[1,5-a]pyridine]", "IC50": 1.47},
      {"compound": "Cc1nn(C)c(Cl)c1S(=O)(=O)N1CCC(c2cn3ncnc3cc2C(F)(F)F)CC1", "note": "[Compound 275, 6-(1-((5-chloro-1,3-dimethyl-1H-pyrazol-4-yl)sulfonyl)piperidin-4-yl)-7-(trifluoromethyl)-[1,2,4]triazolo[1,5-a]pyridine]", "IC50": 0.061},
      {"compound": "Cc1cc2nccn2nc1C1CCN(S(=O)(=O)c2ccc3ncsc3c2)CC1", "note": "[Compound 38, 6-((4-(7-methylimidazo[1,2-b]pyridazin-6-yl)piperidin-1-yl)sulfonyl)benzo[d]thiazole]", "IC50": 4.2},
      {"compound": "O=S(=O)(c1c(Cl)nc2sccn12)N1CCC(c2cn3ncnc3cc2C(F)(F)F)CC1", "note": "[Compound 340, 6-chloro-5-((4-(7-(trifluoromethyl)-[1,2,4]triazoto[1,5-a]pyridin-6-yl)piperidin-1-yl)sulfonyl)imidazo[2,1-b]thiazole]", "IC50": 0.173},
      {"compound": "Cc1cc2ncnn2nc1C1CCN(S(=O)(=O)c2c(C)n[nH]c2C)CC1", "note": "[Compound 180, 6-(1-((3,5-dimethyl-1H-pyrazol-4-yl)sulfonyl)piperidin-4-yl)-7-methyl-[1,2,4]triazolo[1,5-b]pyridazine]", "IC50": "> 10"},
      {"compound": "O=S(=O)(c1cnn2c1OCCC2)N1CCC(c2ccc3ncnn3c2)CC1", "note": "[Compound 387, 3-((4-([1,2,4]triazolo[1,5-a]pyridin-6-yl)piperidin-1-yl)sulfonyl)-6,7-dihydro-5H-pyrazolo[5,1-b][1,3]oxazine]", "IC50": 0.113},
      {"compound": "Cc1cc2c(cc1C1CCN(S(=O)(=O)c3cnn(C)c3Cl)CC1)OCO2", "note": "[Compound 372, 1-((5-chloro-1-methyl-1H-pyrazol-4-yl)sulfonyl)-4-(6-methylbenzo[d][1,3]dioxol-5-yl)piperidine]", "IC50": 0.014},
      {"compound": "Cc1nc(C)c(S(=O)(=O)N2CCC(c3nn4ccnc4cc3C)CC2)s1", "note": "[Compound 249, 2,4-dimethyl-5-((4-(7-methylimidazo[1,2-b]pyridazin-6-yl)piperidin-1-yl)sulfonyl)thiazole]", "IC50": 2.6},
      {"compound": "Cc1cc2c(cc1C1CCN(S(=O)(=O)c3ccc4c(c3)CCO4)CC1)OCO2", "note": "[Compound 375, 1-((2,3-dihydrobenzofuran-5-yl)sulfonyl)-4-(6-methylbenzo[d][1,3]dioxol-5-yl)piperidine]", "IC50": 2.06},
      {"compound": "Cc1cc2ncnn2nc1C1CCN(S(=O)(=O)c2c(C)nn(C)c2Cl)CC1", "note": "[Compound 179, 6-(1-((5-chloro-1,3-dimethyl-1H-pyrazol-4-yl)sulfonyl)piperidin-4-yl)-7-methyl-[1,2,4]triazolo[1,5-b]pyridazine]", "IC50": 0.066},
      {"compound": "O=S(=O)(c1cnn2c1CCC2)N1CCC(c2cn3ncnc3cc2Cl)CC1", "note": "[Compound 293, 7-chloro-6-(1-((5,6-dihydro-4H-pyrrolo[1,2-b]pyrazol-3-yl)sulfonyl)piperidin-4-yl)-[1,2,4]triazolo[1,5-a]pyridine]", "IC50": 0.012},
      {"compound": "Cc1nc2[nH]ccc2nc1C1CCN(S(=O)(=O)c2ccc3c(c2)CCO3)CC1", "note": "[Compound 15, 2-(1-((2,3-dihydrobenzofuran-5-yl)sulfonyl)piperidin-4-yl)-3-methyl-5H-pyrrolo[2,3-b]pyrazine]", "IC50": "> 10"}
    ]},
    {"biological_target": "T1, hM5", "test": "Calcium mobilization concentration-response (IC50 vs EC80 acetylcholine), CHO hM5", "assay_type": "cell-based", "settings": "CELL LINE hM5; vs EC80 acetylcholine; read-out: IC50", "summary_of_the_method": "as §1", "units": {"IC50": "µM"}, "values": [
      {"compound": "Cc1cc2ncccc2cc1C1CCN(S(=O)(=O)c2cnn(C)c2CC#N)CC1", "note": "[Compound 461, 2-(1-methyl-4-((4-(7-methylquinolin-6-yl)piperidin-1-yl)sulfonyl)-1H-pyrazol-5-yl)acetonitrile]", "IC50": 1.28},
      {"compound": "CO[C@@H]1CN(S(=O)(=O)c2cnn3c2OCCC3)CC[C@H]1c1cn2ncnc2cc1C", "note": "(racemic) [Compound 414, (rac)-3-((trans-3-methoxy-4-(7-methyl-[1,2,4]triazolo[1,5-a]pyridin-6-yl)piperidin-1-yl)sulfonyl)-6,7-dihydro-5H-pyrazolo[5,1-b][1,3]oxazine]", "IC50": 1.46},
      {"compound": "COc1nn(C)c(I)c1S(=O)(=O)N1CCC(c2cn3ncnc3cc2Cl)CC1", "note": "(single isomer, unassigned) [Compound 626, 7-chloro-6-(1-((5-iodo-3-methoxy-1-methyl-1H-pyrazol-4-yl)sulfonyl)piperidin-4-yl)-[1,2,4]triazolo[1,5-a]pyridine]", "IC50": 0.037},
      {"compound": "Cc1ncc(S(=O)(=O)N2CCC(c3ccc4ncnn4c3)CC2)s1", "note": "[Compound 480, 5-((4-([1,2,4]triazolo[1,5-a]pyridin-6-yl)piperidin-1-yl)sulfonyl)-2-methylthiazole]", "IC50": "> 10"},
      {"compound": "Cn1ncc(S(=O)(=O)N2CCC(F)(c3cn4ncnc4cc3F)CC2)c1Cl", "note": "[Compound 502, 6-(1-((5-chloro-1-methyl-1H-pyrazol-4-yl)sulfonyl)-4-fluoropiperidin-4-yl)-7-fluoro-[1,2,4]triazolo[1,5-a]pyridine]", "IC50": 1.63},
      {"compound": "Cc1c(C2CCN(S(=O)(=O)c3cnn(C)c3C#N)CC2)cn2ncnc2c1F", "note": "[Compound 438, 4-((4-(8-flooro-7-methyl-[1,2,4]triazolo[1,5-a]pyridin-6-yl)piperidin-1-yl)sulfonyl)-1-methyl-1H-pyrazole-5-carbonitrile]", "IC50": 0.026},
      {"compound": "Cc1nc2n(c1C1CCN(S(=O)(=O)c3cnn(C)c3C(F)F)CC1)CCCC2", "note": "[Compound 465, 3-(1-((5-(difluoromethyl)-1-methyl-1H-pyrazol-4-yl)sulfonyl)piperidin-4-yl)-2-methyl-5,6,7,8-tetrahydroimidazo[1,2-a]pyridine]", "IC50": 6.92},
      {"compound": "CO[C@@H]1CN(S(=O)(=O)c2cnn(C)c2Cl)CC[C@H]1c1cn2ncnc2cc1C", "note": "(racemic) [Compound 413, (rac)-6-(trans-1-((5-chloro-1-methyl-1H-pyrazol-4-yl)sulfonyl)-3-methoxypiperidin-4-yl)-7-methyl-[1,2,4]triazolo[1,5-a]pyridine]", "IC50": 0.268},
      {"compound": "Cc1cc2ccnn2cc1C1CCN(S(=O)(=O)c2cnn(C)c2Cl)CC1", "note": "[Compound 470, 6-(1-((5-chloro-1-methyl-1H-pyrazol-4-yl)sulfonyl)piperidin-4-yl)-5-methylpyrazolo[1,5-a]pyridine]", "IC50": 0.094},
      {"compound": "COC1(c2cn3ncnc3cc2C)CCN(S(=O)(=O)c2cnn(C)c2C)CC1", "note": "[Compound 412, 6-(1-((1,5-dimethyl-1H-pyrazol-4-yl)sulfonyl)-4-methoxypiperidin-4-yl)-7-methyl-[1,2,4]triazolo[1,5-a]pyridine]", "IC50": "> 10"},
      {"compound": "Cc1ncc(S(=O)(=O)N2CCC(c3cc4cccnc4cc3C)CC2)s1", "note": "[Compound 449, 2-methyl-5-((4-(7-methylquinolin-6-yl)piperidin-1-yl)sulfonyl)thiazole]", "IC50": 2.36}
    ]}
  ]
}
